Data published in PMC8795738, “The Tarantula Venom Peptide Eo1a Binds to the Domain II S3-S4 Extracellular Loop of Voltage-Gated Sodium Channel NaV1.8 to Enhance Activation” (Frontiers in Pharmacology, 2022).
Where a SMILES comes first, the peptide text is derived from it. Bridges are numbered along the chain shown (N, C = ends).

Assays:
NaV1.2 = assay: I-V protocol, whole-cell patch-clamp, NaV1.2; assay type: cell-based, human; details: Eo1a 10 μM
Procedure: (§1) Human Embryonic Kidney (HEK) 293 cells stably expressing human NaV1.1 to NaV1.7/β1 (SB Drug Discovery, Glasgow, United Kingdom), Chinese Hamster Ovary (CHO) cells stably expressing human NaV1.8/β3 in a tetracycline-inducible system (ChanTest, Cleveland, OH, United States), and HEK293 cells stably expressing rat transient receptor potential vanilloid 1 (TRPV1) were cultured as previously described ([Yin et al., 2020]). Human KV2.1 and NaV1.7 mutants were transiently transfected into HEK293 cells stably expressing β1/β2 using Lipofectamine 2000 (Thermo Fisher Scientific, Scoresby, VIC, Australia) and used for patch-clamp experiments 48 h after transfection. Cells were grown in an incubator at 37°C with 5% CO2 and passaged every 3–4 d (at 70–80% confluency) using TrypLE Express (Thermo Fisher Scientific).
(§2) Automated whole-cell patch-clamp recordings were performed with a QPatch-16 automated electrophysiology platform (Sophion Bioscience, Ballerup, Denmark) using single-hole (QPlate 16 with a standard resistance of 2 ± 0.4 MΩ) or multi-hole (QPlate 16X with a standard resistance 0.2 ± 0.04 MΩ, NaV1.8 only) as previously described ([McMahon et al., 2020]).
The extracellular solution (ECS) consisted of (in mM) 145 NaCl (replaced with 70 choline chloride for NaV1.4, NaV1.5 and NaV1.7), 4 KCl, 2 CaCl2, 1 MgCl2, 10 HEPES, and 10 glucose, pH to 7.4 with NaOH (adjusted to 305 mOsm/L with sucrose). For NaV recordings the intracellular solution (ICS) consisted of (in mM) 140 CsF, 1 EGTA, 5 CsOH, 10 HEPES, and 10 NaCl, pH to 7.3 with CsOH (adjusted to 320 mOsm/L with sucrose). For KV2.1 recordings the ICS consisted of (in mM) 50 KCl, 60 KF, 10 EGTA, 10 HEPES, 10 NaCl pH to 7.3 with KOH (adjusted to 320 mOsm/L with sucrose). […]
(§3) The time constant of fast inactivation (τ) was computed by fitting the current decay traces with a single exponential function using QPatch Assay Software 5.6 (Sophion). The time to peak was calculated from pulse onset to peak inward current using QPatch Assay Software 5.6 (Sophion).

NaV1.5 = assay: I-V protocol, whole-cell patch-clamp, NaV1.5; assay type: cell-based, human; details: Eo1a 10 μM
Procedure: as §1, §2
The extracellular solution (ECS) consisted of (in mM) 145 NaCl (replaced with 70 choline chloride for NaV1.4, NaV1.5 and NaV1.7), 4 KCl, 2 CaCl2, 1 MgCl2, 10 HEPES, and 10 glucose, pH to 7.4 with NaOH (adjusted to 305 mOsm/L with sucrose). For NaV recordings the intracellular solution (ICS) consisted of (in mM) 140 CsF, 1 EGTA, 5 CsOH, 10 HEPES, and 10 NaCl, pH to 7.3 with CsOH (adjusted to 320 mOsm/L with sucrose). For KV2.1 recordings the ICS consisted of (in mM) 50 KCl, 60 KF, 10 EGTA, 10 HEPES, 10 NaCl pH to 7.3 with KOH (adjusted to 320 mOsm/L with sucrose). TTX (1 μM) was added to the ECS for NaV1.8 recordings to inhibit background endogenous TTX sensitive current in CHO cells.
I-V curves were obtained with a holding potential of −90 mV followed by a series of 500 ms step pulses that ranged from −110 to +80 mV in 5-mV increments (repetition interval 5 s) before and after 5 min incubation with Eo1a (10 μM). Conductance-voltage (G-V) curves were obtained by calculating the conductance (G) at each voltage (V) using equation G = I/(V − V rev ), where V rev is the reversal potential. G-V curves were fitted with a Boltzmann equation. […]
as §3

TRPV1 = TRPV1 calcium assay (FLIPR); assay type: cell-based; details: Eo1a 10 μM, HEK293, rat TRPV1, Calcium 4 dye, 300 s, compared with capsaicin 300 nM, n = 3 wells
Procedure: as §1
The activity of Eo1a at rTRPV1 was assessed using the assay described previously ([Yin et al., 2020]). Briefly, the TRPV1 activator capsaicin (300 nM) and Eo1a (10 μM) were added to cells loaded with Calcium 4 no-wash dye (Molecular Devices) and changes in fluorescence were assessed using a FLIPR^TETRA (excitation 470–495 nm, emission 515–575 nm) every 1 s for 300 s. Fluorescence responses were normalized to baseline fluorescence (ΔF/F) and plotted versus time using ScreenWorks 3.2.0.14.

[1] = system: NaV1.7 with DII S3-S4 loop of NaV1.8; assay: Voltage-dependence of activation, NaV1.7/NaV1.8 chimera DII S3-S4; assay type: cell-based, human; details: Eo1a 10 μM; NaV1.7 with NaV1.8 DII S3-S4; HEK293 β1/β2, transient; mean ± SEM, n = 3–6 cells
Procedure: as §1
(§4) Wild-type (WT) hNaV1.7 cDNA (NM_002,977, a gift from Dr James Cox, University College London) was subjected to in vitro site-directed mutagenesis using the QuikChange™ XL mutagenesis kit (Agilent Technologies) following the manufacturer’s instructions. NaV1.7 mutants were generated by substituting the domain II (DII) S1-S2 loop, the DII S3-S4 loop, the domain IV (DIV) S1-S2 loop and the DIV S3-S4 loop in NaV1.7 with the corresponding regions of NaV1.8. The mutations were verified by sequencing at the Brisbane node of the Australian Genome Research Facility. […]

[2] = system: NaV1.7 with DIV S3-S4 loop of NaV1.8; assay: Voltage-dependence of activation, NaV1.7/NaV1.8 chimera DIV S3-S4; assay type: cell-based, human; details: Eo1a 10 μM; NaV1.7 with NaV1.8 DIV S3-S4; HEK293 β1/β2, transient; mean ± SEM, n = 3–6 cells
Procedure: as §1, §4

## CC[C@H](C)[C@@H]1NC(=O)[C@H](CCCNC(=N)N)NC(=O)[C@@H]2CSSC[C@@H]3NC(=O)CNC(=O)CNC(=O)[C@H](CC(C)C)NC(=O)[C@H](Cc4ccccc4)NC(=O)[C@H](Cc4c[nH]c5ccccc45)NC(=O)[C@H](CCCNC(=N)N)NC(=O)[C@@H](NC(=O)[C@@H](N)CC(=O)O)CSSC[C@H](NC(=O)[C@H](CSSC[C@@H](C(=O)N[C@@H](C)C(=O)N[C@@H](Cc4c[nH]c5ccccc45)C(=O)N[C@@H](CC(=O)O)C(=O)NCC(=O)N[C@H](C(=O)N[C@@H](Cc4ccccc4)C(N)=O)[C@@H](C)O)NC(=O)[C@H](Cc4ccc(O)cc4)NC(=O)[C@H](CCCCN)NC(=O)[C@H]([C@@H](C)CC)NC(=O)[C@H](Cc4ccc(O)cc4)NC(=O)CNC(=O)[C@H](CC(=O)O)NC1=O)NC(=O)[C@H](CC(=O)O)NC(=O)[C@H](CO)NC(=O)[C@H](CC(=O)O)NC(=O)[C@H](CCCCN)NC(=O)[C@H](CO)NC3=O)C(=O)N[C@@H](CCCCN)C(=O)N[C@@H](Cc1c[nH]cn1)C(=O)N[C@@H](CC(C)C)C(=O)N[C@@H](C)C(=O)N2 [Eo1a] (H-DCRWFLGGCSKDSDCCKHLACRIDGYIKYCAWDGTF-NH2; disulfide 2-16, 9-21, 15-30 (inferred); N-terminus assumed)
NaV1.2; 5 min, control −15.9 ± 1.2 mV, *p < 0.05, mean ± SEM, n = 4–6
  V1/2 activation: −21.3 mV
NaV1.2; 5 min, control −54.6 ± 1.6 mV, mean ± SEM, n = 4–6
  V1/2 inactivation (steady-state fast inactivation): −52.7 ± 0.5
NaV1.2; test pulse −20 mV
  effect on inactivation kinetics: minimal effect
NaV1.5; 5 min, peak from I-V protocol at any voltage, normalised to buffer control, HEK293 hNaV1.5/β1, mean ± SEM, n = 4–6 cells
  peak current I/I0: 0.41 ± 0.05
NaV1.5; NaV1.5, 5 min, control −30.3 ± 4.0 mV, mean ± SEM, n = 4–6
  V1/2 activation: −27.1 ± 2.2 mV
NaV1.5; NaV1.5, 5 min, control −70.2 ± 0.9 mV, mean ± SEM, n = 4–6
  V1/2 inactivation (steady-state fast inactivation): −75.5 ± 1.0
NaV1.5; NaV1.5, test pulse −20 mV
  effect on inactivation kinetics: minimal effect
TRPV1
  activity at TRPV1 (Ca2+ dye fluorescence over baseline): minimal activity
[1]
  ΔV1/2 activation: −20.4 ± 1.4 mV
[2]
  ΔV1/2 activation: −6.7 ± 0.5 mV
